Data from patent publication US7094533B1, “Therapeutic and diagnostic applications of prostatic acid phosphatase in prostate cancer” (Board of Regents of the University of Nebraska, priority 1999, dated 2006).
Read-outs that look alike come from different tables or passages of the source.

Columns and labels:
DU145 cells = settings: counted at day 3 (FIG. 1A)
Excerpt: (§1) Cell Cultures. Human prostate carcinoma cell lines, LNCaP-FGC (LNCaP) (Horoszewicz et al., 1983, Cancer Res. 43:1809–1818), DU145 (Stone et al., 1978, Int. J. Cancer 21:274–281), and PC-3 (Kaighn et al., 1979, Invest. Urol. 17:16–23), were originally obtained from the American Type Culture Collection (Rockville, Md.) and routinely maintained in RPMI 1640 medium supplemented with 7% FBS, 1% glutamine, and 0.5% gentamicin, as described previously (Lin et al., 1992, Cancer Res. 52, 4600–4607; Lin et al., 1986, Mol. Cell. Biol. 6:4753–4757). Cultured cells were fed twice per week and trypsinized once per week; one passage equals one trypsinization. […] For experiments, LNCaP cells that had passage numbers less than 33 were designated as clone 33, passage numbers over 80 as clone 81, and passage numbers between 34 and 80 as clone 51. To investigate basal growth rates of different subcloned cells, cells were seeded and maintained in steroid-reduced medium containing 5% heat-inactivated dialyzed FBS. To quantify cell growth, attached cells were trypsinized and neutralized with medium-FBS. The total cell number including the suspended and attached cells were counted using a hemocytometer via trypan blue exclusion or a Coulter Counter Z1 model (Lin et al., 1992, Cancer Res. 52, 4600–4607; Lin et al., 1994, Differentiation 57:143–149).
(§2) Androgen Effect on Cell Growth, Protein Tyrosine Phosphorylation, PSA, and PAcP Expression. Cells were plated at a density of approximately 1×10^4 cells/cm^2 in RPMI 1640 medium containing 7% FBS and maintained in a 37° C. incubator (5% CO^2) for 3 days (Lin et al., 1992, Cancer Res. 52, 4600–4607; Lin et al., 1993, Arch. Biochem. Biophys. 300:384–390; both are incorporated by reference herein). To investigate androgen effect on cell growth and protein tyrosine phosphorylation, cells that had been maintained in the steroid-reduced medium containing 5% heat-inactivated dialyzed FBS for an additional 48 h were grown in fresh steroid-reduced medium in the presence or absence of different concentrations of DHT. After a time period specified in each set of experiments, cells were harvested and then counted using a hemocytometer or Coulter Counter (Lin et al., 1992, Cancer Res. 52, 4600–4607; Lin et al., 1994, Differentiation 57:143–149; incorporated by reference herein). The cell number in the control well was defined as ratio 1.0.
(§3) In FIG. 1A, the total cell number was counted at day 3 for PC-3 and DU145 cells and at day 4 fro LNCaP cells.

PC-3 cells = settings: counted at day 3 (FIG. 1A)
Excerpt: as §1, §2, §3

clone 33 LNCaP cells = settings: 10 nM DHT
Excerpt: as §1, §2, §3

clone 81 LNCaP cells = settings: 10 nM DHT, 7-day treatment, clone 81 LNCaP (FIG. 2A)
Excerpt: as §1, §2, §3

[1] = tested on: LNCaP-23 and LNCaP-34 cells; settings: LNCaP-23 and LNCaP-34 versus clone 81 parent and LNCaP-CMV cells, different concentrations of DHT (FIG. 5D)
Protocol: as §2

PC-411 and PC-416 cells = settings: p<0.05 (FIG. 6D)
Protocol: as §2

PSA mRNA = settings: each clone of LNCaP cells (33, 51, 81), 10 nM DHT, 3 days
Excerpt: (§4) Cells were harvested for preparation of total RNA and total cell lysate proteins as described below.

cellular PAcP = settings: clone 33 LNCaP cells exposed to DHT (FIG. 3B)
Excerpt: as §4
Western Blot Analysis. Subconfluent cells were trypsinized, pelleted, and rinsed with Hepes-buffered saline, pH 7.0, and then lysed in a hypotonic cell lysis buffer containing various protease inhibitors as described above. […] The relative levels of AR and PAcP protein were semiquantified by densitometric analyses of autoradiograms with different exposure time periods utilizing Molecular Dynamics equipment and software program.

PAcP mRNA in LNCaP cells = tested on: PAcP mRNA in LNCaP cells
Excerpt: Nuclear run-on experiment. […] Transcription was continued in the presence of “P-labeled UTP (Amersham. Life Science Inc.). The radioactive RNA was hybridized with a slot blot membrane containing the full length of PAcP cDNA.

AR in PC-3 cells = assay: Chloramphenicol acetyltransferase assay (pMSG-CAT reporter); type: cell-based, human; settings: 10 nM R1881, 24 h, PC-3 cell lysate proteins (FIG. 6A)
Excerpt: (§5) Chloramphenicol Acetyltransferase Assay.

DU 145 cells = assay: as above; type: cell-based, human; settings: 10 nM R1881, DU 145 cells
Excerpt: as §5

[2] = tested on: human AR cDNA-transfected PC-3 cells; settings: 10 nM R1881, 24 h, human AR cDNA-transfected PC-3 cells (FIG. 6A)
Protocol: Chloramphenicol Acetyltransferase Assay. Cells that had been grown in medium containing 5% charcoal-stripped FBS were transfected with the pMSG-CAT reporter plasmid, pSG5 vector DNA, or pSG5-AR plasmid by the liposome-mediated transfection method (Lin et al., 1992, Cancer Res. 52, 4600–4607; Felgner et al., 1987, Proc. Natl. Acad. Sci. U.S.A. 84:7413–7417). After a 24-h incubation period, cells were maintained in medium supplemented with 5% steroid-reduced FBS in the presence or absence of 10 nM R1881, a synthetic androgen, in ethanol (0.01%, v/v). After an additional 24-h incubation, CAT assays were performed as described (Felgner et al., 1987, Proc. Natl. Acad. Sci. U.S.A. 84:7413–7417; Moszowicz et al., 1993, Mol. Endocrinol. 7:1861–869).

PAcP = molecular target: T1, PAcP (Homo sapiens, UniProt P15309); settings: 20 nM okadaic acid; cited from earlier work
T1 sequence (P15309 33-386): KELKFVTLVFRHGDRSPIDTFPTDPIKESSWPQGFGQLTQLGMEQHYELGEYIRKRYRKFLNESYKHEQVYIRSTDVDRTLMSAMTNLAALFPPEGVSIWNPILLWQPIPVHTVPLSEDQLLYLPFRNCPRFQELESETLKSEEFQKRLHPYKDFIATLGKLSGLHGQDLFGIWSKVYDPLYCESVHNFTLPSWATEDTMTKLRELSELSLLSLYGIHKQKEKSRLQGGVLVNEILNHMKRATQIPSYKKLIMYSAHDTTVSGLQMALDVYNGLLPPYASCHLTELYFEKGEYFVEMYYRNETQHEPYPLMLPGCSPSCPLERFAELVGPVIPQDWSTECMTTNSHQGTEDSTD

[3] = tested on: PAcP cDNA transfected C-81 LNCaP cells; assay: Anchorage-independent growth, soft agar analysis; type: cell-based, human; settings: LNCaP-23, -28, -40 cells, colonies after 3 weeks (FIG. 9B)
Protocol: (§6) Anchorage-independent growth. Anchorage-independent growth of prostate cancer cells was performed by soft agar analysis (Weiner et al., 1989, Oncogene 4:1175–1183; Horoszewicz et al., 1983, Cancer Res. 43:1809–1818). Briefly, cells were seeded in 0.25% agarose on the top of a base layer containing 0.6% agarose. One day after seeding, cell clumps containing more than one cell were excluded and the colony number was counted after 3 weeks of incubation.

PC-416 cells = assay: Anchorage-independent growth, soft agar analysis; type: cell-based, human; settings: PC-416 cells (FIG. 9C)
Protocol: as §6

LNCaP xenograft tumors [4] = assay: Subcutaneous xenograft tumors in male athymic mice, LNCaP cells; type: in vivo; settings: 28 days after inoculation (C-81 LNCaP 241)
Protocol: (§7) Xenograft animal experiments. The protocol for the subcutaneous xenograft animal model in athymic mice was essentially as that described in Lin et al., 1995 (The Prostate 26:194–204). For comparing the tumorigenicity of different LNCaP cells, 1×10^6 cells were suspended in 0.1 ml medium, mixed with 0.1 ml matrigel (Collaborative Biomedical, MA), and injected subcutaneously in the hind flank of male mice. For examining the hormone effect on tumor development, 5×10^5 cells in matrigel were injected into female mice. For the PC-3 cell system, 1×10^6 cells in 0.2 ml medium suspension without matrigel were injected into male mice. The animal maintenance and the tumor measurement were followed the NIH guidelines and the specific guideline by the University of Nebraska Medical Center as previously described (Lin et al., 1995, The Prostate 26:194–204).

LNCaP xenograft tumors [5] = assay: Subcutaneous xenograft tumors in female athymic mice, LNCaP cells; type: in vivo; settings: for mice that did not develop any tumor: female, after 100 days of inoculation; for averaged tumor size: 70 days
Protocol: as §7

PC-3 xenograft tumors = assay: Subcutaneous xenograft tumors in male athymic mice, PC-3 cells; type: in vivo; settings: for xenograft tumor size as % of PC-3 xenograft tumors: 42 days; for xenograft tumor size: 42 days after cell injection (PC-3 612 mm^3)
Protocol: as §7

C[C@]12CCC(=O)C[C@@H]1CC[C@@H]1[C@@H]2CC[C@]2(C)[C@@H](O)CC[C@@H]12 [DHT, 5α-dihydrotestosterone]
effect on cell growth (DU145 cells): did not have a significant effect
effect on cell growth (PC-3 cells): did not have a significant effect
stimulatory effect on cell growth (clone 33 LNCaP cells; 7-day treatment, clone 33 LNCaP (FIG. 2A)): ≤ 2.5 fold
stimulation of cell growth (clone 33 LNCaP cells; clone 33 LNCaP, steroid-reduced medium, counted at day 4 (FIG. 1A)): 1.5–2 fold
stimulation of cell growth (clone 81 LNCaP cells): ~20%
degree of androgen stimulation of cell growth [1]: enhanced
effect on cell growth (PC-411 and PC-416 cells): stimulated significantly
induction of PSA mRNA, normalized to GAPDH (PSA mRNA): 2–3 fold
cellular PAcP level (cellular PAcP): diminished level
transcription of PAcP mRNA (PAcP mRNA in LNCaP cells; high density LNCaP cells (FIG. 11B)): suppressed
transcription of PAcP mRNA (PAcP mRNA in LNCaP cells; low density LNCaP cells (FIG. 11B)): stimulated

C[C@]1(O)CC[C@H]2[C@@H]3CCC4=CC(=O)CCC4=C3C=C[C@@]21C [R1881]
stimulation of the CAT activity (AR in PC-3 cells): ~2 fold
effect on the CAT activity (DU 145 cells): did not have an effect
stimulation of the CAT activity [2]: ~9 fold

C=C1[C@@H](O)[C@@H]2O[C@]3(CC[C@H](/C=C/[C@@H](C)[C@@H]4CC(C)=C[C@@]5(O[C@H](C[C@@](C)(O)C(=O)O)CC[C@H]5O)O4)O3)CC[C@H]2O[C@@H]1[C@@H](O)C[C@H](C)[C@H]1O[C@@]2(CCCCO2)CC[C@H]1C [okadaic acid]
effect on PAcP activity (PAcP): not affected

B1: cellular PAcP: cellular form of human prostatic acid phosphatase, expressed from full-length human PAcP cDNA driven by a pCMV-neo expression vector (protein)
chain: KELKFVTLVFRHGDRSPIDTFPTDPIKESSWPQGFGQLTQLGMEQHYELGEYIRKRYRKFLNESYKHEQVYIRSTDVDRTLMSAMTNLAALFPPEGVSIWNPILLWQPIPVHTVPLSEDQLLYLPFRNCPRFQELESETLKSEEFQKRLHPYKDFIATLGKLSGLHGQDLFGIWSKVYDPLYCESVHNFTLPSWATEDTMTKLRELSELSLLSLYGIHKQKEKSRLQGGVLVNEILNHMKRATQIPSYKKLIMYSAHDTTVSGLQMALDVYNGLLPPYASCHLTELYFEKGEYFVEMYYRNETQHEPYPLMLPGCSPSCPLERFAELVGPVIPQDWSTECMTTNSHQGTEDSTD
decrease of anchorage-independent growth [3]: more than 100 folds
anchorage-independent growth (PC-416 cells): diminished
averaged tumor size (LNCaP xenograft tumors [4]; LN-23 cells): 143 mm^3
averaged tumor size (LNCaP xenograft tumors [4]; LN-34 cells): 115 mm^3
tumor induction (LNCaP xenograft tumors [5]; LN-23 and LN-40 cells, female mice, 35 days after inoculation (clone-81 782 mm^3)): no detectable tumor
mice that did not develop any tumor (LNCaP xenograft tumors [5]; LN-23 mice): 20%
averaged tumor size (LNCaP xenograft tumors [5]; LN-23 tumors, female mice): 347 mm^3
mice that did not develop any tumor (LNCaP xenograft tumors [5]; LN-40 mice): 50%
averaged tumor size (LNCaP xenograft tumors [5]; LN-40 tumors, female mice): 214 mm^3
xenograft tumor size as % of PC-3 xenograft tumors (PC-3 xenograft tumors; PC-412, male mice): about 38%
xenograft tumor size (PC-3 xenograft tumors; PC-412, male mice): 233 mm^3
xenograft tumor size as % of PC-3 xenograft tumors (PC-3 xenograft tumors; PC-416, male mice): ~23%
xenograft tumor size (PC-3 xenograft tumors; PC-416, male mice): 138 mm^3
